Legend:
[1] = toxicological study, lethal doses (Table IA); conditions: mouse, in vivo
From the text: The results relating to toxicology are brought together in Table IA below:

L1210 U.S.A. strain = test: antitumor activity on leukemia L1210 U.S.A., compounds of formula IA, I.P.; format: in vivo, mouse
Method: On the day of the graft (by convention day 0=DO) an inoculum of 1×10^5 tumor cells in a volume of 0.2 ml is administered to each mouse by the intraperitoneal route (I.P.).
(§1) This inoculum is prepared by diluting ascites fluid taken from the peritoneum of a donor female mouse in NCTC 109 medium (Eurobio Laboratories Paris, France), counting of the cells in a MALASSEZ cell under a microscope and adjustment of the concentration to 5×10^5cells per ml.
After the tumor graft has been made, the mice are distributed at random in cages of 5 animals. Subsequently, these cages containing 5 mice are themselves distributed at random into a control group (control) and groups treated with the products of the invention.
(§2) The doses of the products of the invention used in the different experiments are expressed in milligrams per kilogram of body weight.
(§3) The products to be injected were dissolved in isotonic sodium chloride solution.
Two protocols for treatment were used in the different experiments:
(§4) or 3 I.P. injections on D1, D5, D9.
(§5) In each experiment the animals of the control group received 1 or more injections, depending on the experimental protocol used, by the same route (I.P. or I.V.) of the same volume (0.2 ml/20 g) of the vehicle not containing the active principle (isotonic sodium chloride solution).
(§6) the number and percentage of the total of the mice surviving to D60,
(§7) the T/C×100 for treated groups.
(§8) T representing the mean survival time of the mice in the treated group
(§9) C representing the mean survival time of the mice in the control group (control).

melanoma B16 [2] = test: antitumor activity on melanoma B16, compounds of formula IA, I.P.; format: in vivo, mouse; conditions: B6 D2 F1, I.P. D1, D5, D9, 3×10 mg/kg
Method: The experiments were always carried out on SPF female mice B6 D2 F1/JIco (first generation hybrids between the lines C5BL/6 and DBA/2).
(§10) On the day of the graft (Day 0) an inoculum of 2×10^6 tumor cells in a volume of 0.5 ml is administered to each mouse by the intraperitoneal route (I.P.). This inoculum is prepared from a sub-cutaneous tumor excised from a donor female mouse. After excision the tumor is fragmented by means of a pair of scissors in the NCTC 109 medium. After filtration through sterile gauze in order to remove large cellular fragments, the homogeneous cell suspension obtained is counted by means of a MALASSEZ cell and diluted to the desired concentration (4×10^6 tumor cells per ml) by dilution with the NCTC 109 medium.
This was performed in the manner described previously for the leukemia L1210.
as §2, §3, §4, §5, §6, §7, §8, §9

[3] = toxicological results, single I.P. dose, DL0 and DL50; format: in vivo, mouse; conditions: mice
From the text: DL0, DL50, single I.P. dose administered to the aforementioned strains of mice.

L1210 U.S.A. = test: antitumor activity on leukemia L1210 U.S.A., products of examples 33-39, I.P.; format: in vivo, mouse
Method: The experiments were always carried out on female mice which were specific pathogen-free (S. P. F.),
either of the line DBA/2JIco
or of the line B6 D2 F1/JIco (first generation hybrids between the lines C57BL/6 and DBA/2).
On the day of the graft (by convention day 0=D0) an inoculum of 1×10^5 tumor cells in a volume of 0.2 ml is administered to each mouse by the intraperitoneal route (I.P.).
as §1, with “Laboratories,” for “Laboratories”, “[…] by means of the same medium.” for “ml.”
The tumor line is an American strain of the line L1210.
After the tumor graft, the mice are distributed at random in cages of 5 animals. Subsequently, these cages containing 5 mice are themselves distributed at random into a control group (control) and groups treated with the I.C. products.
as §2, §3
2 protocols for treatment were used in the different experiments:
either a single injection on D1, by the intraperitoneal (I.P.) or intravenous (I.V.) route,
as §4
(§11) In each experiment the animals of the control group received 1 or more injections, depending on the experimental protocol used, by the same route (I.P. or I.V.) of the same volume (0.2 ml/20 g) of the vehicle without the active principle (isotonic sodium chloride solution).
as §6
(§12) the T/C×100 for the treated groups.
(§13) T representing the mean survival time of the mice in the treated group,
(§14) C representing the mean survival time of the mice in the control group (controls).

melanoma B16 [4] = test: antitumor activity on melanoma B16, products of examples 33-39, I.P.; format: in vivo, mouse; conditions: B6 D2 F1, I.P. D1, D5, D9, 3×10 mg/kg
Method: The experiments are always carried out on SPF female mice, B6 D2 F1/JIco (first generation hybrids between the lines C57BL/6 and DBA/2).
as §10, with “(day 0),” for “(Day 0)”, “(4×10^6tumor” for “(4×10^6 tumor”
This was performed in the manner described for the leukemia L1210 (see above).
as §2, §3, §4, §11, §6, §12, §13, §14

[5] = B6 D2 F1, I.P. D1, D5, D9, 3×1.25 mg/kg
[6] = B6 D2 F1, I.P. D1, D5, D9, 3×5 mg/kg
[7] = B6 D2 F1, I.P. D1, D5, D9, 3×10 mg/kg
[8] = DBA2, I.P. D1, D5, D9, 3×5 mg/kg

For `CO[C@H]1O[C@H](CO)[C@H](Cl)[C@H](NC(=O)N(CCCl)N=O)[C@H]1O` [CI. 1676, methyl 4-chloro 3-[3-(2-chloro-ethyl) 3-nitrosoureido] 3,4-dideoxy-α-D-galacto-hexopyranoside], the LD0 [1] was ≥ 20 mg/kg, the “Number of survivors at D60” value (L1210 U.S.A. strain; [5]) was 0/10 and the T/C (L1210 U.S.A. strain; [5]) was 136. For the same molecule, the “Number of survivors at D60” value (L1210 U.S.A. strain; [6]) was 0/10, the T/C (L1210 U.S.A. strain; [6]) was 188 and the “Number of survivors at D60” value (melanoma B16 [2]) was 3/10. For the same molecule, the T/C (melanoma B16 [2]) was 202.

With `CO[C@H]1O[C@H](CO)C[C@H](NC(=O)N(CCCl)N=O)[C@H]1O` [CI. 1677, methyl 3-[3-(2-chloroethyl) 3-nitroso-ureido] 3,4-dideoxy-α-D-xylo-hexopyranoside] the LD90 [1] was ≤ 20 mg/kg, the “Number of survivors at D60” value (L1210 U.S.A. strain; [5]) was 0/10 and the T/C (L1210 U.S.A. strain; [5]) was 157. The “Number of survivors at D60” value (L1210 U.S.A. strain; [6]) was 6/10, the T/C (L1210 U.S.A. strain; [6]) was > 600 and the “Number of survivors at D60” value (melanoma B16 [2]) was 7/10. For the same molecule, the T/C (melanoma B16 [2]) was 257.

For `CO[C@@H]1O[C@H](C)C[C@H](NC(=O)N(CCCl)N=O)[C@H]1O` [IC. 85-1591, methyl 3-[3-(2-chloroethyl) 3-nitrosoureido] 3,4,6-trideoxyβ-D-xylo-hexopyranoside], the DL0 [3] was ≥ 20 mg/kg, the LD50 ([3]; mouse, in vivo, ip) was ~40 mg/kg and the Number of survivors (L1210 U.S.A.; [5]) was 0/10. The T/C (L1210 U.S.A.; [5]) was 116, the Number of survivors (L1210 U.S.A.; [6]) was 2/10 and the T/C (L1210 U.S.A.; [6]) was 217. For the same molecule, the “Number of survivors on D60” value (L1210 U.S.A.; [7]) was 8/10, the T/C (L1210 U.S.A.; [7]) was 600 and the “Number of survivors on D60” value (L1210 U.S.A.; DBA2, I.P. D1, 1×20 mg/kg) was 7/10. The T/C (L1210 U.S.A.; DBA2, I.P. D1, 1×20 mg/kg) was > 600, the “Number of survivors on D60” value (L1210 U.S.A.; [8]) was 6/10 and the T/C (L1210 U.S.A.; [8]) was > 600. For the same molecule, the Number of survivors (melanoma B16 [4]) was 3/10 and the T/C (melanoma B16 [4]) was 194.

From US4902791A, “Nitrosourea derivatives, process for their preparation and medicaments containing them” (Sanofi S.A., priority 1983, dated 1990)
